Laboratory results as given in patent publication US10294207B2, “Pyrazole derivatives as TNIK, IKKϵ and TBK1 inhibitor and pharmaceutical composition comprising same” (GREEN CROSS CORPORATION, priority 2015, dated 2019).

Tests used:
[1] = target: T1, TBK1 (Homo sapiens, UniProt Q9UHD2); test: TBK1 inhibition, ADP-Glo Kinase Assay; type: biochemical; settings: luminometer
T1 construct: purchased Promega V3991
T1 sequence (Q9UHD2 1-729): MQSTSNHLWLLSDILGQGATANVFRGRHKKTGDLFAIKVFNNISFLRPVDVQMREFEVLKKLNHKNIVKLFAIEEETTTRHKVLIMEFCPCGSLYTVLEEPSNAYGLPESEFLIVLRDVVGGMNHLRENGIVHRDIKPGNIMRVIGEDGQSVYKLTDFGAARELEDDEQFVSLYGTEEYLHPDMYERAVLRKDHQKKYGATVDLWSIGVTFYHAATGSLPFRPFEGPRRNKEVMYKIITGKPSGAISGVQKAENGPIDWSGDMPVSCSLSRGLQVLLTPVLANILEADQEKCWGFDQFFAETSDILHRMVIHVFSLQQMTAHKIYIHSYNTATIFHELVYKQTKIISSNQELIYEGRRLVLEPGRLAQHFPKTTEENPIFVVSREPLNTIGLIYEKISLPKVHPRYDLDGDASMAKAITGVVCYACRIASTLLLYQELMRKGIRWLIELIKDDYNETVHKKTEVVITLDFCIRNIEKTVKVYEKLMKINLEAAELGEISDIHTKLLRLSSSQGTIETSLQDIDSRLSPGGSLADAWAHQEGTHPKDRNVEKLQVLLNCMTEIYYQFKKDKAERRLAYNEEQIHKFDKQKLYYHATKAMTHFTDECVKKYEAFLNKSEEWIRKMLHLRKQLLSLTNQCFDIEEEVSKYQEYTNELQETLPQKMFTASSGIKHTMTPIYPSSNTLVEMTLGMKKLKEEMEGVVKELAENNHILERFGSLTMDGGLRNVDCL
Procedure, shortened: (§1)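 Each recombinant kinase enzyme system was run per the manufacturer's protocol in 40 mM Tris pH 7.5, 20 mM MgCl2 and 0.1 mg/mL BSA. Kinase activity was detected as ADP formation by ADP-Glo luminescence.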

[2] = target: T2, IKKε (Homo sapiens, UniProt Q14164); test: IKKε inhibition, ADP-Glo Kinase Assay; type: biochemical; settings: luminometer
T2 construct: purchased Invitrogen PR8031B
T2 sequence (Q14164 1-716): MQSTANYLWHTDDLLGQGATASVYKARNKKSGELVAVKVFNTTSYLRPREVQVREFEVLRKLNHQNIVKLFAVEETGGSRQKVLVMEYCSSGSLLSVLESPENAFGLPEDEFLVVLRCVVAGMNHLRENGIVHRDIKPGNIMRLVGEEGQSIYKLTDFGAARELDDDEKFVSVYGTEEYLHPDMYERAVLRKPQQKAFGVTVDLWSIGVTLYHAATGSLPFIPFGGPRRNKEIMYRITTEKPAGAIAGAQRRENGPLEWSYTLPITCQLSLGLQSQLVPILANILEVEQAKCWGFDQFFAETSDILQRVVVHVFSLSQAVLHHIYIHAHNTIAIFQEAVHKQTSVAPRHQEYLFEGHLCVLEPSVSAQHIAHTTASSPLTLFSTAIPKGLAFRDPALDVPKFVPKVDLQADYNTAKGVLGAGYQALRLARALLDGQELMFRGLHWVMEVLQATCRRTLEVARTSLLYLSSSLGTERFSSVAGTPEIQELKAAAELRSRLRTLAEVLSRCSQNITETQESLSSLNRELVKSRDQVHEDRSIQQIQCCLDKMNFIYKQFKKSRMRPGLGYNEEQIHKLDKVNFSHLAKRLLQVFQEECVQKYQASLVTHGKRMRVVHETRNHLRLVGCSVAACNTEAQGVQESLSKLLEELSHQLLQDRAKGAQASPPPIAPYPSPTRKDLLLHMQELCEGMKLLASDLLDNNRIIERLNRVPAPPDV
Procedure, shortened: as §1

Row | IC50 [1] | IC50 [2] | Compound
1 | 0.019 µM | 0.013 µM | O=C(Nc1n[nH]c2ccc(C(=O)NC(c3cccs3)C3CC3)cc12)c1ccc(N2CCNCC2)cc1 (centres unmarked) [Example 126, N-(Cyclopropyl(thiophen-2-yl)methyl)-3-(4-(piperazin-1-yl)benzamido)-1H-indazole-5-carboxamide]
2 | 0.027 µM | 0.14 µM | CC(NC(=O)c1ccc2[nH]nc(NC(=O)c3ccc(N4CCOCC4)cc3)c2c1)c1ccccn1 (centres unmarked) [Example 127, 3-(4-Morpholinobenzamido)-N-(1-(pyridin-2-yl)ethyl)-1H-indazole-5-carboxamide]
3 | 0.028 µM | 0.11 µM | CC(NC(=O)c1ccc2[nH]nc(NC(=O)c3ccc(N4CCN(C)CC4)cc3)c2c1)c1ccccn1 (centres unmarked) [Example 128, 3-(4-(4-Methylpiperazin-1-yl)benzamido)-N-(1-(pyridin-2-yl)ethyl)-1H-indazole-5-carboxamide]
4 | 0.022 µM | 0.054 µM | CC(C)CC(NC(=O)c1ccc2[nH]nc(NC(=O)c3ccc(N4CCN(C)CC4)cc3)c2c1)c1cccs1 (centres unmarked) [Example 129, N-(3-Methyl-1-(thiophen-2-yl)butyl)-3-(4-(4-methylpiperazin-1-yl)benzamido)-1H-indazole-5-carboxamide]
5 | 0.11 µM | 0.9 µM | CC(C)CC(NC(=O)c1ccc2[nH]nc(NC(=O)c3ccc(N4CCOCC4)cc3)c2c1)c1cccs1 (centres unmarked) [Example 130, N-(3-Methyl-1-(thiophen-2-yl)butyl)-3-(4-morpholinobenzamido)-1H-indazole-5-carboxamide]
6 | 0.03 µM | 0.14 µM | CCC(C)(NC(=O)c1ccc2[nH]nc(NC(=O)c3ccc(N4CCN(C)CC4)cc3)c2c1)c1cccs1 (centres unmarked) [Example 131, 3-(4-(4-methylpiperazin-1-yl)benzamido)-N-(2-(thiophen-2-yl)butan-2-yl)-1H-indazole-5-carboxamide]
7 | 0.023 µM | 0.043 µM | CC(NC(=O)c1ccc2[nH]nc(NC(=O)c3ccc(N4CCOCC4)cc3)c2c1)c1ccncc1 (centres unmarked) [Example 132, 3-(4-Morpholinobenzamido)-N-(1-(pyridin-4-yl)ethyl)-1H-indazole-5-carboxamide]
8 | 0.028 µM | 0.053 µM | CC(NC(=O)c1ccc2[nH]nc(NC(=O)c3ccc(N4CCN(C)CC4)cc3)c2c1)c1ccncc1 (centres unmarked) [Example 133, 3-(4-(4-Methylpiperazin-1-yl)benzamido)-N-(1-(pyridin-4-yl)ethyl)-1H-indazole-5-carboxamide]
9 | 0.012 µM | 0.033 µM | CC(C)(NC(=O)c1ccc2[nH]nc(NC(=O)c3ccc(N4CCOCC4)cc3)c2c1)c1cccs1 [Example 134, 3-(4-Morpholinobenzamido)-N-(2-(thiophen-2-yl)propan-2-yl)-1H-indazole-5-carboxamide]
10 | 0.0085 µM | 0.038 µM | CN1CCN(c2ccc(C(=O)Nc3n[nH]c4ccc(C(=O)NC(c5cccs5)C(F)(F)F)cc34)cc2)CC1 (centres unmarked) [Example 135, 3-(4-(4-Methylpiperazin-1-yl)benzamido)-N-(2,2,2-trifluoro-1-(thiophen-2-yl)ethyl)-1H-indazole-5-carboxamide]
11 | 0.0057 µM | 0.024 µM | CN1CCN(c2ccc(C(=O)Nc3n[nH]c4ccc(C(=O)NC(C)(C)c5cccs5)cc34)cc2)CC1 [Example 136, 3-(4-(4-Methylpiperazin-1-yl)benzamido)-N-(2-(thiophen-2-yl)propan-2-yl)-1H-indazole-5-carboxamide]
12 | 0.0049 µM | 0.032 µM | C[C@H]1CN(c2ccc(C(=O)Nc3n[nH]c4ccc(C(=O)NC(C)(C)c5cccs5)cc34)cc2)CCN1 [Example 137, (S)-3-(4-(3-Methylpiperazin-1-yl)benzamido)-N-(2-(thiophen-2-yl)propan-2-yl)-1H-indazole-5-carboxamide]
13 | 0.039 µM | 0.12 µM | O=C(Nc1n[nH]c2ccc(C(=O)NC(c3cccs3)C(F)(F)F)cc12)c1ccc(N2CCOCC2)cc1 (centres unmarked) [Example 138, 3-(4-Morpholinobenzamido)-N-(2,2,2-trifluoro-1-(thiophen-2-yl)ethyl)-1H-indazole-5-carboxamide]
14 | 0.1 µM | 0.34 µM | O=C(Nc1n[nH]c2ccc(C(=O)NC(c3ccccn3)C3CC3)cc12)c1ccc(N2CCOCC2)cc1 (centres unmarked) [Example 139, N-(Cyclopropyl(pyridin-2-yl)methyl)-3-(4-morpholinobenzamido)-1H-indazole-5-carboxamide]
15 | 0.084 µM | 0.27 µM | CN1CCN(c2ccc(C(=O)Nc3n[nH]c4ccc(C(=O)NC(c5ccccn5)C5CC5)cc34)cc2)CC1 (centres unmarked) [Example 140, N-(Cyclopropyl(pyridin-2-yl)methyl)-3-(4-(4-methylpiperazin-1-yl)benzamido)-1H-indazole-5-carboxamide]
16 | 0.024 µM | 0.38 µM | CN1CCN(c2ccc(C(=O)Nc3n[nH]c4ccc(NC(=O)Cc5cccs5)cc34)cc2)CC1 [Example 141, 4-(4-Methylpiperazin-1-yl)-N-(5-(2-(thiophen-2-yl)acetamido)-1H-indazol-3-yl)benzamide]
17 | 0.067 µM | 0.096 µM | O=C(Nc1n[nH]c2ccc(C(=O)NC(c3cccnc3)C3CC3)cc12)c1ccc(N2CCOCC2)cc1 (centres unmarked) [Example 142, N-(Cyclopropyl(pyridin-3-yl)methyl)-3-(4-morpholinobenzamido)-1H-indazole-5-carboxamide]
18 | 0.071 µM | 0.12 µM | CN1CCN(c2ccc(C(=O)Nc3n[nH]c4ccc(C(=O)NC(c5cccnc5)C5CC5)cc34)cc2)CC1 (centres unmarked) [Example 143, N-(Cyclopropyl(pyridin-3-yl)methyl)-3-(4-(4-methylpiperazin-1-yl)benzamido)-1H-indazole-5-carboxamide]
19 | 0.069 µM | 0.25 µM | O=C(Cc1cccs1)Nc1ccc2[nH]nc(NC(=O)c3ccc(N4CCOCC4)cc3)c2c1 [Example 144, 4-Morpholino-N-(5-(2-(thiophen-2-yl)acetamido)-1H-indazol-3-yl)benzamide]
20 | 0.012 µM | 0.033 µM | CN1CCN(c2ccc(C(=O)Nc3n[nH]c4ccc(C(=O)NC(C)(C)c5ccsc5)cc34)cc2)CC1 [Example 145, 3-(4-(4-methylpiperazin-1-yl)benzamido)-N-(2-(thiophen-3-yl)propan-2-yl)-1H-indazole-5-carboxamide]
21 | 0.019 µM | 0.065 µM | CN1CCN(c2ccc(C(=O)Nc3n[nH]c4ccc(C(=O)NCc5ccc(Cl)s5)cc34)cc2)CC1 [Example 146, N-((5-chlorothiophen-2-yl)methyl)-3-(4-(4-methylpiperazin-1-yl)benzamido)-1H-indazole-5-carboxamide]
22 | 0.11 µM | 0.34 µM | CN1CCN(c2ccc(C(=O)Nc3n[nH]c4ccc(C(=O)NC5(c6cccs6)CCCCC5)cc34)cc2)CC1 [Example 147, 3-(4-(4-Methylpiperazin-1-yl)benzamido)-N-(1-(thiophen-2-yl)cyclohexyl)-1H-indazole-5-carboxamide]
23 | 0.004 µM | 0.031 µM | O=C(NCc1cccs1)c1ccc2[nH]nc(NC(=O)c3ccc(N4CCOCC4)cc3)c2c1 [Example 148, 3-(4-Morpholinobenzamido)-N-(thiophen-2-ylmethyl)-1H-indazole-5-carboxamide]
24 | 0.0075 µM | 0.032 µM | CN1CCN(c2ccc(C(=O)Nc3n[nH]c4ccc(C(=O)NCc5cccs5)cc34)cc2)CC1 [Example 149, 3-(4-(4-methylpiperazin-1-yl)benzamido)-N-(thiophen-2-ylmethyl)-1H-indazole-5-carboxamide]
25 | 0.0072 µM | 0.049 µM | COCCNc1ccc(C(=O)Nc2n[nH]c3ccc(C(=O)NCc4cccs4)cc23)cc1 [Example 150, 3-(4-((2-methoxyethyl)amino)benzamido)-N-(thiophen-2-ylmethyl)-1H-indazole-5-carboxamide]
